The values that follow come from PMC5386545, “Madecassic acid, the contributor to the anti-colitis effect of madecassoside, enhances the shift of Th17 toward Treg cells via the PPARγ/AMPK/ACC1 pathway” (Cell Death & Disease, 2017).

pKi: −log10 of the molar value.

The target in assay [1] is T1, PPARγ (Homo sapiens, UniProt P37231).
T1 construct: gene PPARG; GST-fused human PPARγ-LBD
T1 sequence (P37231 231-505 limits assumed): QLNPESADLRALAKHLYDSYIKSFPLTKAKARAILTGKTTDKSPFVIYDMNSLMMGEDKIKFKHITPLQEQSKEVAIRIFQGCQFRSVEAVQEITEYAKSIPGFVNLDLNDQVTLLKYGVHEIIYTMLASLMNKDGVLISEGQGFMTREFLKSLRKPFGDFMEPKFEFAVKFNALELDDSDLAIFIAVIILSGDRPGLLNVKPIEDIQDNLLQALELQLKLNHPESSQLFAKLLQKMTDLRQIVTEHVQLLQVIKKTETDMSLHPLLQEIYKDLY
The assay can be described thus: LanthaScreen TR-FRET competitive binding assay (reference agonist; value not given).

In assay [2] the target is T1, PPARγ. Description: LanthaScreen TR-FRET competitive binding assay. For orientation: Time-resolved FRET reads energy transfer from a long-lived donor to a nearby acceptor.

For `CN(CCOc1ccc(CC2SC(=O)NC2=O)cc1)c1ccccn1` (centres unmarked) [rosiglitazone], at PPARγ [1], the “LanthaScreen TR-FRET competitive binding assay (reference agonist); no value prin” value is “Madecassic acid or rosiglitazone was cultured with GST-fused human PPARγ-LBD, terbium-labeled anti-GST antibody and a fluorescently labeled PPAR ligand”.

As usually defined, the pKi is the Ki on a negative log10 scale, so that one unit is a factor of ten. Regarding `C[C@H]1[C@H](C)CC[C@]2(C(=O)O)CC[C@]3(C)C(=CC[C@@H]4[C@@]5(C)C[C@@H](O)[C@H](O)[C@@](C)(CO)[C@@H]5[C@H](O)C[C@]43C)[C@H]12` [madecassic acid], the pKi at PPARγ [2] was 5.79.
